Laboratory results published in paper PMC4108065, “Inflammation and pancreatic cancer: molecular and functional interactions between S100A8, S100A9, NT-S100A8 and TGFβ1” (Cell Communication and Signaling : CCS, 2014).

Assays:
[1] = tested on: BxPC3-SMAD4+ IκBα and Akt phosphorylation; assay: Signaling western blot in BxPC3-SMAD4+ cells; format: cell-based, human; conditions: BxPC3-SMAD4+ vs BxPC3, 10 min, 10 nM S100A8
Description: The pancreatic cancer cell lines used were: Panc1 and Suit2, donated by Prof Aldo Scarpa (University of Verona, Italy); BxPC3, from Dr Andrea Galli (University of Florence, Italy); MiaPaCa2, Capan1 and the human embryonic kidney Hek293 cell lines, supplied by the American Type Culture Collection (Manassas, VA, USA). BxPC3, Capan1 and Panc1 were cultured in RPMI (Gibco/BRL, Gaithhersburg, MD, USA) supplemented with 10% (BxPC3 and Panc1) and 20% (Capan1) fetal calf serum (FCS) (Gibco/BRL), 1% L-glutamine (Gibco/BRL) and 0.1% gentamycin (Gibco/BRL). MiaPaCa2 and Hek293 were cultured in DMEM (Gibco/BRL) supplemented with 10% FCS, 2% L-glutamine and 0.1% Gentamycin. BxPC3 cells were transfected with the expression vector pBK-cytomegalovirus (CMV)-SMAD4/DPC4, as previously described. One SMAD4/DPC4-expressing clone (BxPC3-SMAD4+) was used for the experiments. Smad4 silencing of MiaPaCa2 cells was performed as previously described.
Five million cells were seeded in Petri dishes (ø 10 cm) and cultured for 24 hours in their respective complete media prior to starting the experiments. […] Lysates were centrifuged for 10 min at 14,000 rpm at 4°C and, in the supernatants, total proteins were measured using the Bio-Rad protein assay (Bio-Rad Laboratories, Milano, Italy). […]

BxPC3-SMAD4+ = assay: XTT cell viability assay, BxPC3-SMAD4+; format: cell-based, human; conditions: BxPC3-SMAD4+ vs BxPC3, XTT, 48 hours; TGFβ1 0.02 ng/ml, NT-S100A8 50 nM
Description: Supplementary file 1478-811X-12-20-S7.tiff: Additional file 7: Figure S6 XTT cell viability assay results. BxPC3 (empty columns) and BxPC3-SMAD4+ (filled columns) were seeded in a 96 well culture plate (2000 cells/well) and cultured for 48 hours, A: in absence (control) or in presence of TGFβ1 (0.02 ng/ml) and NT-S100A8 (50 nM), alone or combined; B: in absence (control) or in presence of TGFβ1 (0.02 ng/ml) and S100A8 (10 nM) and S100A9 (10 nM), alone or combined. In each experimental set, the median value of Abs450nm of untreated cells was calculated and used as reference. All the other values were expressed as percentage to the reference. Columns and bars show mean and standard errors, respectivelty. Student’s t test: * = p<0.05. Click here for file
BxPC3, Capan1, MiaPaCa2, Panc1 and BxPC3-SMAD4+ cells were seeded (2000 cells per well) in 96-well cell culture plates and cultured in complete media for 24 hours. […] Cell growth was assessed after 48 hours using the XTT cell viability test (Roche, Milano, Italy). […] The results were expressed as percentage with respect to the median Abs450nm of control cells run in the same experimental set.

Substance	IκBα phosphorylation in Smad4 expressing BxPC3 [1]	cell proliferation response associated with Smad4 expression (BxPC3-SMAD4+)
S100A8: inflammatory calcium binding protein S100A8 (ProSpec-Tany TechnoGene)	reduced IκBα phosphorylation	–
TGFβ1: transforming growth factor beta 1 (ProSpec-Tany TechnoGene)	–	positive cell proliferation response
NT-S100A8: 14 N-terminal aminoacid peptide of S100A8, isolated from PDAC tissues (MLTELEKALNSIID; UniProt P05109 1-14, looked up, fragment)	–	positive cell proliferation response
